Read-outs that look alike come from different tables or passages of the source.

Data set [1] addresses T1, PmSiaT (Proteus mirabilis, UniProt B4EZY7).
T1 construct: made in house
T1 sequence (B4EZY7 1-496): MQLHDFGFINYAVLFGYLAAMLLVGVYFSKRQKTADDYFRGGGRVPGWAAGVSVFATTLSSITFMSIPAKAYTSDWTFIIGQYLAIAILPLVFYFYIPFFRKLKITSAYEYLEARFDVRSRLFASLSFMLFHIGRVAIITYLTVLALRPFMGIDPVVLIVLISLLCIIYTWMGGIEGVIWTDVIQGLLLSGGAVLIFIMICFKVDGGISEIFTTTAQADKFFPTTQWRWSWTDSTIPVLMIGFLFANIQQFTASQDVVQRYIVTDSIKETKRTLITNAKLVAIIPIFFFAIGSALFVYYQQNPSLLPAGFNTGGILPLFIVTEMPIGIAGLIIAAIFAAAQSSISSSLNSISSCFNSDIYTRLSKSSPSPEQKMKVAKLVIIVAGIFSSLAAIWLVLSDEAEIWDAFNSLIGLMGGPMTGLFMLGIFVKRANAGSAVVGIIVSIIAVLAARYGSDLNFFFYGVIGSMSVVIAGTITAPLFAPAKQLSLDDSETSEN
Put plainly: nanoDSF thermal shift assay, PmSiaT. It is filed as binding. Particulars: for Average 1 / Average 2 / Average 3 / Replicate 1 / Replicate 2 / Replicate 3: PmSiaT Tm; for Average 1: average of experiment 1; for Average 2: average of experiment 2; for Average 3: average of experiment 3; for Replicate 1: experiment 1, second capillary; for Replicate 1 / Replicate 2 / Replicate 3 / Tm 1 / Tm2 / Tm 3 / Tm average overall / ΔTm at 1250 µM: 1.25 mM; for Replicate 2: experiment 2, second capillary; for Replicate 3: experiment 3, second capillary; for Tm 1: experiment 1, first capillary; for Tm2: experiment 2, first capillary; for Tm 3: experiment 3, first capillary; for Tm average overall / ΔTm at 1250 µM: three experiments; for ΔTm at 1250 µM: vs Neu5Ac, read-out: ΔTm average overall. In a few lines: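 Protein at 2 μM in PBS with 0.0174% (w/v) DDM and ligand at 1.25 mM were heated from 25 to 95 °C at 1 °C/min, with 330/350 nm fluorescence ratio and its first derivative giving Tm. ΔTm is relative to the Neu5Ac Tm, averaged over 3 experiments with 2 capillaries each.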

For data set [2], the target named is T1, PmSiaT. Put plainly: Isothermal titration calorimetry, PmSiaT. It is filed as binding. On the procedure: The binding thermodynamic analysis performed via isothermal titration calorimetry (ITC) provides insights into dissociation constants (Kd) and the binding driving forces of compounds 3a, 3e, and 3f with PmSiaT and SaSiaT.
Isothermal titration calorimetric experiments were performed on an ITC200 instrument (MicroCal, Northampton, USA) at 25 °C using standard instrument settings (reference power of 6 μcal s^–1, stirring speed of 750 rpm, feedback mode high, and filter period of 2 s). Protein solutions were dialyzed against ITC buffer (50 mM Tris–HCl, 150 mM NaCl, with 0.0174% (w/v) DDM, pH 8.0 at 5 °C) prior to the experiments, and all the samples were prepared using the dialysate buffer to minimize dilution effects. Protein concentrations were determined spectrophotometrically with the specific absorbance at 280 nm employing an extinction coefficient of 76,445 mol^–1 cm^–1 for PmSiaT and 75,750 M^–1 cm^–1 for SaSiaT. […] In a typical experiment, a 0.3–1.0 mM inhibitor solution was titrated to a solution containing 30–50 μM of PmSiaT or 13–20 μM of SaSiaT to ensure >90% saturation. Baseline correction, peak integration, and nonlinear regression analysis of experimental data were performed using the NITPIC (version 1.2.2.)[41] and SEDPHAT (version 12.1b)[42] software packages. The stoichiometry parameter was manually constrained to a value of 1. Experiments were performed in triplicate and the 68% confidence intervals from global fitting of three experiments were calculated as an estimate of the experimental error. All the titration curves can be found in Figures S10–S15.

A further data set can be described thus: Plasma stability, dog. The data set is classed as in vitro ADME. Particulars: 1 μM, 37 °C. On the procedure:
The reaction was started by the addition of the compound to blank plasma in LC vials after preincubation at 37 °C. The initial compound concentration was 1 μM. The reaction was stopped by the addition of ACN at seven time points (0, 0.5, 1, 2, 4, 6, and 23 h). Time point 0 h was about 15–20 s after spiking the plasma with the compound. The samples were centrifuged and the supernatant diluted and analyzed by LC–MS/MS to determine the % of compound remaining relative to the initial concentration of compound.

The mark [3] stands for this setting: PmSiaT, experiment 1, vs Neu5Ac, read-out: ΔTm 1.
Where [4] appears, read: PmSiaT, experiment 2, vs Neu5Ac, read-out: ΔTm 2.
Where [5] appears, read: nanoDSF, relative to Neu5Ac, ligand 1.25 mM, <−2.0 °C nonbinder, read-out: PmSiaT ΔTm.
Where [6] appears, read: PmSiaT, experiment 3, vs Neu5Ac, read-out: ΔTm 3.

For `CC(=O)NC1C(OCc2ccccc2)CC(O)(C(=O)O)OC1C(O)C(O)CO` (stereo not shown) [Compound 3a], at PmSiaT [1], the “Average 1” value turned out to be 54.6 °C, the “Average 2” value came out at 53.8 °C, the “Average 3” value came to 54.1 °C and the “Replicate 1” value was 54.6 °C. For the same compound, on PmSiaT [1], the “Replicate 2” value came to 53.9 °C and the “Replicate 3” value is 54.2 °C. Further, on PmSiaT [1] (PmSiaT), the “Tm 1” value came to 54.5 °C, the Tm2 turned out to be 53.7 °C, the “Tm 3” value was found to be 54.0 °C and the Tm average overall came out at 54.2 °C. Moreover, the ΔTm at 1250 µM on PmSiaT [1] (PmSiaT) is 5 °C. The ΔTm at PmSiaT [1] (setting [3]) is 5.6 °C. Further, on PmSiaT [1] (setting [4]), the ΔTm was 4.6 °C. Also, the ΔTm at PmSiaT [1] (setting [5]) was 4.8 ± 0.5 °C. Also, on PmSiaT [2] (ITC), the “PmSiaT -TΔS°” value is -13.9 kcal/mol, the “PmSiaT ΔG°” value is -6.91 kcal/mol and the “PmSiaT ΔH°” value worked out at 7 kcal/mol. Moreover, the Kd on PmSiaT [2] (PmSiaT Kd, ITC, 25 °C) amounted to 9 ± 3.2 µM. In addition, the affinity at PmSiaT [2] (PmSiaT Kd, ITC, Table S4), expressed as Kd, was 8.77 µM. Moreover, the “In vitro plasma stability (% compound remaining after 23 h)” value in “Plasma stability, dog” worked out at 100%.
For the compound `CC(=O)NC1C(OCc2cc(F)cc(F)c2)CC(O)(C(=O)O)OC1C(O)C(O)CO` (stereo not shown) [Compound 3e], on PmSiaT [1], the “Average 1” value is 56.7 °C, the “Average 2” value is 55.2 °C, the “Average 3” value amounted to 56.1 °C and the “Replicate 1” value stood at 56.8 °C. For the same compound, on PmSiaT [1], the “Replicate 2” value was found to be 55.2 °C and the “Replicate 3” value was 56.1 °C. Also, on PmSiaT [1] (PmSiaT), the “Tm 1” value was 56.7 °C, the Tm2 was 55.2 °C, the “Tm 3” value turned out to be 56.0 °C and the Tm average overall worked out at 56.0 °C. In addition, the ΔTm at 1250 µM at PmSiaT [1] (PmSiaT) was found to be 6.8 °C. In addition, the ΔTm at PmSiaT [1] (setting [3]) is 7.7 °C. For the same compound, the ΔTm on PmSiaT [1] (setting [4]) amounted to 6 °C. Further, the ΔTm at PmSiaT [1] (setting [6]) came out at 6.8 °C. Moreover, the ΔTm on PmSiaT [1] (setting [5]) was 6.8 ± 0.9 °C. At PmSiaT [2] (ITC), the “PmSiaT -TΔS°” value is -15.7 kcal/mol, the “PmSiaT ΔG°” value was -7.12 kcal/mol and the “PmSiaT ΔH°” value is 8.58 kcal/mol. For the same compound, the Kd at PmSiaT [2] (PmSiaT Kd, ITC, 25 °C) worked out at 6.2 ± 2.8 µM. Also, on PmSiaT [2] (PmSiaT Kd, ITC, Table S4), the affinity, expressed as Kd, was 6.07 µM. The “In vitro plasma stability (% compound remaining after 23 h)” value in “Plasma stability, dog” came to 100%.
`CC(=O)NC1C(OCc2cc(Br)cc(Br)c2)CC(O)(C(=O)O)OC1C(O)C(O)CO` (stereo not shown) [Compound 3f]: on PmSiaT [1], the “Average 2” value worked out at 62.8 °C, the “Average 3” value amounted to 63.7 °C, the “Replicate 1” value stood at 64.2 °C and the “Replicate 2” value was 63.0 °C. For the same compound, the “Replicate 3” value at PmSiaT [1] came to 63.6 °C. In addition, at PmSiaT [1] (PmSiaT), the “Tm 1” value amounted to 63.9 °C, the Tm2 amounted to 62.6 °C, the “Tm 3” value amounted to 63.8 °C and the Tm average overall amounted to 63.5 °C. In addition, the ΔTm at PmSiaT [1] (setting [3]) came out at 15 °C. At PmSiaT [1] (setting [4]), the shift in melting temperature (ΔTm) was 13.6 °C. Besides, the ΔTm at PmSiaT [1] (setting [5]) is 14.3 °C. Also, at PmSiaT [2] (ITC), the “PmSiaT -TΔS°” value is -17.8 kcal/mol, the “PmSiaT ΔG°” value is -8.96 kcal/mol and the “PmSiaT ΔH°” value is 8.87 kcal/mol. On PmSiaT [2] (PmSiaT Kd, ITC, 25 °C), this compound registered a Kd of 0.27 ± 0.14 µM. For the same compound, the dissociation constant Kd at PmSiaT [2] (PmSiaT Kd, ITC, Table S4) is 0.272 µM. Besides, at PmSiaT [2] (compared to the natural substrate Neu5Ac), the “affinity increase of binding for PmSiaT” value came to 180 fold. Also, the “In vitro plasma stability (% compound remaining after 23 h)” value in “Plasma stability, dog” came out at 81%.
Take `CC(=O)N[C@H]1[C@H]([C@H](O)[C@H](O)CO)OC(O)(C(=O)O)C[C@@H]1O` (stereo partly shown) [Neu5Ac, 5-N-acetyl neuraminic acid, reference compound]: at PmSiaT [1], the “Average 1” value was determined as 49.0 °C, the “Average 2” value was 49.2 °C, the “Average 3” value amounted to 49.3 °C and the “Replicate 1” value stood at 48.8 °C. Besides, on PmSiaT [1], the “Replicate 2” value came to 49.2 °C and the “Replicate 3” value turned out to be 49.3 °C. At PmSiaT [1] (PmSiaT), the “Tm 1” value was found to be 49.2 °C, the Tm2 amounted to 49.1 °C, the “Tm 3” value was found to be 49.3 °C and the Tm average overall was 49.1 °C. Moreover, the ΔTm at 1250 µM at PmSiaT [1] (PmSiaT) was 0 °C. Besides, on PmSiaT [1] (setting [3]), the ΔTm was 0 °C. Besides, the ΔTm at PmSiaT [1] (setting [4]) came out at 0 °C. Besides, the shift in melting temperature (ΔTm) at PmSiaT [1] (setting [6]) is 0 °C. Further, at PmSiaT [1] (setting [5]), the ΔTm was 0 °C. At PmSiaT [2], this compound yielded a dissociation constant (Kd) of 50 ± 9 µM. Further, at PmSiaT [2] (ITC), the “PmSiaT -TΔS°” value is -12.6 kcal/mol, the “PmSiaT ΔG°” value was -5.86 kcal/mol and the “PmSiaT ΔH°” value worked out at 6.72 kcal/mol.

Source of the values: paper PMC9295122, “Sialic Acid Derivatives Inhibit SiaT Transporters and Delay Bacterial Growth” (ACS Chemical Biology, 2022).
